Values quoted from earlier work, collected in patent US11628197B2, “Methods and compounds for treating effects of COVID-19 disease” (priority 2020, dated 2023).

Tests used:
[1] = test system: COVID-19; details: study of 243 subjects
[2] = test system: COVID-19 disease; details: US Veterans Administration hospitals, France, China and Brazil

Molecule	Efficacy for preventing intubation or death [1]	Therapeutic effects after clinical testing [2]
Tocilizumab: humanized monoclonal antibody targeting IL-6 receptors	failed to show efficacy	–
CCN(CCO)CCCC(C)Nc1ccnc2cc(Cl)ccc12 (stereo not drawn) [hydroxycholoroquine]	–	failed to produce desired therapeutic effects
CCN(CC)CCCC(C)Nc1ccnc2cc(Cl)ccc12 (stereo not drawn) [chloroquine]	–	failed to produce desired therapeutic effects
